In paper PMC5971309, “Identification of Estrogen Receptor α Antagonists from Natural Products via In Vitro and In Silico Approaches” (Oxidative Medicine and Cellular Longevity, 2018):

Experiments:
[1] = molecular target: T1, ERα (Homo sapiens, UniProt P03372); test: green PolarScreen ERα Competitor Assay (fluorescence polarization); assay type: binding
T1 construct: purchased Life Technologies
T1 sequence (P03372 1-595): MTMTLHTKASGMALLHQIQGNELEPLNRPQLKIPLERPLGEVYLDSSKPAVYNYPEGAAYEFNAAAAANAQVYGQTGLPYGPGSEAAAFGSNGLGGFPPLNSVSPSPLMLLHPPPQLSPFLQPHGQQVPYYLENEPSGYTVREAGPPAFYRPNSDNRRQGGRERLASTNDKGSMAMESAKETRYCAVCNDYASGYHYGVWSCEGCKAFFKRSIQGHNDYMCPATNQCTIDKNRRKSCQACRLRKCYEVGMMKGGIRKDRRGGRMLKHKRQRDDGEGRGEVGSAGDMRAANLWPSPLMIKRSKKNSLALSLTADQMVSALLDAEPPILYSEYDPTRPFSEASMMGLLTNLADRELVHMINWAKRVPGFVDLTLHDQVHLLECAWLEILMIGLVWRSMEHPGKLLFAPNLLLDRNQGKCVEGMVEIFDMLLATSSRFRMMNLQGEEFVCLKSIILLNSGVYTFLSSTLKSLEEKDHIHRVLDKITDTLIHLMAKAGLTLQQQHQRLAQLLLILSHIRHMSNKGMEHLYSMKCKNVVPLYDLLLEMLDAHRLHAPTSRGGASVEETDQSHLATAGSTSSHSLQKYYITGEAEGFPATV
Procedure: The ERα binding affinities of representative compounds predicted as ERα antagonists were measured by fluorescence polarization procedure using green PolarScreen™ ERα Competitor Assay kit (Life Technologies, CA, United States of America). Briefly, 75 nM ERα together with 4.5 nM fluormone was mixed with a series of concentrations of the test compounds in the assay buffer. Then, they were incubated for 2 h in room temperature in black low volume 384-well assay plate with NBS surface (Corning, NY, United States of America) for fluorescence polarization assay. Subsequently, the detection wavelength was set at excitation wavelength 485 nm and emission wavelength 535 nm with bandwidths of 25/20 nm in EnVision Workstation version 1.7 (PerkinElmer, MA, United States of America). 2104 EnVision® Multilabel Plate Reader was performed for the measurements.

[2] = system: ERα; test: Luciferase reporter gene assay for ERα in MCF-7 cells; assay type: cell-based, human; settings: MCF-7 cells transfected with ERE-luc reporter, three concentrations, 24 h
Procedure: Cell transfection and luciferase activity assay were utilized to investigate the effects of the compounds on ER transcriptional activation. The human breast cancer cell line MCF-7 was obtained from the Beijing Key Laboratory of Drug Target Research and Drug Screening, Chinese Academy of Medical Sciences (Beijing, China). Dulbecco's Modified Eagle's Medium (DMEM) culture medium containing 10% fetal calf serum (FBS), 100 U/mL penicillin, and 100 μg/mL streptomycin was used as complete culture medium. The culture conditions were at 37°C, saturated humidity, and 5% CO2. The culture medium was changed every day and when the confluence of cells reached 90%, MCF-7 cells were digested with 0.25% trypsin containing 0.02% EDTA and then cultured under the same culture conditions. MCF-7 cells in logarithmic growth phase were resuspended in 3 mL complete culture medium and were seeded on 24-well plates with a density of 1 × 10^5/well overnight. After incubation for 24 h, cells were grown to approximately 60–80% confluence and then washed by culture medium without serum. MCF-7 cells were cotransfected with the reporter plasmid pGL2-ERE3-luc. Based on the manufacturer's instructions, transfection was mediated by lipofectamine 3000 (Invitrogen). After incubation for 12 h, transfection medium was eliminated, and MCF-7 cells were treated with three concentrations of compounds for 24 h. Then, MCF-7 cells were washed with phosphate-buffered saline (PBS) and cell lysis was collected after oscillation with a low speed. Finally, the luciferase activity was determined by dual-luciferase reporter assay system (Promega) according to the product manual.

[3] = 75 nM ERα, 4.5 nM fluormone, 2 h, room temperature

Compound | IC50 [1, 3] | Antiestrogenic effects (ERα transactivation, luciferase activity) [2] | IC50 ([1]; values in μM)
O=C(OC1Cc2c(O)cc(O)cc2OC1c1cc(O)c(O)c(O)c1)c1cc(O)c(O)c(O)c1 (single isomer, unassigned; (-)) [EGCG, (−)-epigallocatechin-3-gallate] | 0.066 ± 0.0116 µM | – | –
O=c1c(-c2ccc(O)cc2)coc2cc(O)ccc12 [Daidzein] | – | antagonist activity was lower than that of genistein | –
O=c1oc2c(O)c(O)cc3c(=O)oc4c(O)c(O)cc1c4c23 [Ellagic acid] | 0.0626 ± 0.00934 µM | decrease the expression of ERα at high and medium concentrations | –
O=c1c(-c2ccc(O)cc2)coc2cc(O)cc(O)c12 [Genistein] | – | decrease the expression of the ERα remarkably at a dose-dependent manner | –
O=C1C[C@@H](c2ccc(O)cc2)Oc2cc(O)cc(O)c21 [Naringenin] | 0.968 ± 0.0709 µM | weak antiestrogenic effects | –
O=C(CCc1ccc(O)cc1)c1c(O)cc(O)cc1O [Phloretin] | 0.0745 ± 0.0242 µM | regulated the expression of ERα in MCF-7 cells in a dose-dependent way | –
C[C@H]1[C@H](C)CC[C@]2(C(=O)O)CC[C@]3(C)C(=CC[C@@H]4[C@@]5(C)CC[C@H](O)C(C)(C)[C@@H]5CC[C@]43C)[C@H]12 [Ursolic acid] | – | antiestrogenic effects only at high dose | –
COc1ccc(-c2cc(=O)c3c(O)cc(O[C@@H]4O[C@H](CO[C@@H]5O[C@@H](C)[C@H](O)[C@@H](O)[C@H]5O)[C@@H](O)[C@H](O)[C@H]4O)cc3o2)cc1O [diosmin] | – | – | > 10 µM
C[C@@H]1O[C@@H](O[C@H]2[C@H](Oc3cc(O)c4c(c3)O[C@H](c3ccc(O)cc3)CC4=O)O[C@H](CO)[C@@H](O)[C@@H]2O)[C@H](O)[C@H](O)[C@H]1O [naringin] | – | – | > 10 µM
COc1cc(C2Oc3cc([C@H]4Oc5cc(O)cc(O)c5C(=O)[C@@H]4O)ccc3OC2CO)ccc1O (stereo partly shown) [silibinin] | – | – | > 10 µM
